Results published in patent US10426777B2, “Methods used to treat cancer” (THE TRANSLATIONAL GENOMICS RESEARCH INSTITUTE, priority 2009, dated 2019).

Assays:
TNFR1 = TNFR1 expression in glioma cells by Western blot; assay type: cell-based, Human; details: T98G, GBM10 and GBM43 cells, 5 μM PPF, 24 hours
Procedure: (§1) FIGS. 24A-24D illustrate that PPF treatment decreases TROY expression in GBM cells. FIG. 24A—a Western blot analysis of TROY expression in T98G cells. Cells were treated with PPF at indicated concentrations for 6 hrs, lysed, and cell lysates immunoblotted with anti-TROY antibody. Immunoblotting of α-Tubulin in cell lysates is included as a loading control. FIG. 24B—Western blot analysis of TROY expression in T98G, GBM43, and GBM10 cells. Cells were treated with PPF at indicated concentrations for 24 hrs, lysed, and cell lysates immunoblotted with anti-TROY and α-Tubulin antibodies. FIG. 24C—Western Blot analysis of TROY expression in GBM10 and GBM43 primary glioma cells. Cells were treated with 5 μM PPF, lysed at the indicated time-points, and the lysates immunoblotted with an anti-TROY antibody. Immunoblotting of β-Actin in cell lysates is included as a loading control. […]
(§2) Referring now to FIGS. 24A, 24B, 24C, and 24D: The inventors investigated if PPF could be utilized pharmacologically to decrease TROY expression in GBM cells. […] Cells were treated with increasing concentration of PPF, 1 to 20 μM, lysed, and TROY expression assessed by immunoblotting. […] Protein concentrations were determined using the BCA Assay (Pierce). […] Protein bands were detected using SuperSignal Chemiluminescent Substrate (Pierce) with a UVP BioSpectrum 500 Imaging System.

[1] = system: T98G, GBM10, and GBM43 cells; test: Lamellipodia formation and membrane ruffling (F-actin staining); assay type: cell-based, Human; details: 5 μM PPF 1 hour, then 10% FBS 5 min
Procedure: FIGS. 28A and 28B depict that PPF suppresses GBM cell membrane ruffling. FIG. 28A—GBM43 cells were preincubated with 5 μM PPF or vehicle for 1 hour prior to 10% FBS stimulation for 5 min. After FBS stimulation, cells were fixed, permeabilized, and stained for F-actin. For each experimental condition, at least 12 images were taken randomly. Arrowhead indicates membrane ruffles. FIG. 28B—Graph depicts the average lamellipodia in T98G, GBM10, and GBM43 cells in the presence or absence of 10% FBS with or without 5 μM PPF as indicated. Lamellipodia were traced using Image J software.
Referring now to FIGS. 28A and 28B: The inventors investigated lamellipodia formation and membrane ruffling. Briefly, glioma cells were plated onto 10-well glass slides pre-coated with 10 μg/ml laminin at the density of 3000 cells/well for 24 hours at 37° C. Subsequently, cells were serum starved for 16 hours. The cells were pre-incubated with 5 μM PPF or vehicle for 1 hour prior to 10% FBS stimulation for 5 min. After FBS stimulation, cells were fixed in 4% PFA, permeabilized with 0.1% Triton X-100, and incubated with Alexa Fluor® 555 Phalloidin (Invitrogen) to stain for F-actin. Slides were mounted with ProLong® reagent with DAPI and imaged using a Zeiss LSM 510 microscope. For each experimental condition, at least 12 images were randomly taken. Lamellipodia were traced using ImageJ software.

AKT = AKT activation (phosphorylation) by immunoblot; assay type: cell-based, Human; details: T98G and GBM43 cells; PPF 5 μM
Procedure: (§3) FIGS. 26A-26C depict that PPF sensitizes GBM cells to TMZ and radiotherapy. FIG. 26A—A clonogenic assay was used to assess T98G and GBM43 cells survival after TMZ and radiation treatment. Cells were pre-treated with 5 μM PPF for 24 hours, and then either treated with 250 μM TMZ for 24 hours or exposed to 2 Gy radiation. Graph depicts the surviving fraction in the treated cells compared to vehicle (VC) treated or non-treated (NT) cells, **p<0.01. FIG. 26B—T98G glioma cells were treated with vehicle, PPF (5 μM), TMZ (250 μM), and PPF in combination with TMZ. TMZ-induced apoptosis was assayed by immunoblot analysis of cell lysates with an antibody to cleaved PARP. Immunoblotting for α-Tubulin was included as a loading control. FIG. 26C—T98G, GBM10, and GBM43 cells were treated with PPF (5 μM), lysed, and then immunoblotted to assess the activation of AKT and NF-κB. Immunoblotting for […] is included as a loading control.
(§4) Referring now to FIGS. 26A, 26B, and 26C: Knockdown of TROY expression with shRNA decreases TMZ resistance in GBM cells in vitro (See Reference 42). […] Following combination therapy, cells were trypsinized, counted, and plated in a 6-well culture dish at densities of 100, 250, and 500 cells per well in triplicate. Cells were incubated for 12 days then fixed, stained with 0.5% crystal violet solution, and counted manually by blinded observers. […]

T98G and GBM43 cells = test: Clonogenic survival assay with TMZ or radiation; assay type: cell-based, Human
Procedure: as §3, §4

EGFR = EGFR expression in glioma cells by Western blot; assay type: cell-based, Human; details: T98G, GBM10 and GBM43 cells, 5 μM PPF, 24 hours
Procedure: as §1, §2

[2] = system: T98G, GBM10, and GBM43 cells; test: Glioma cell proliferation by automated cell counting; assay type: cell-based, Human; details: doses up to 500 μM, 0-144 hours
Procedure: (§5) FIG. 25A—T98G, GBM43, and GBM10 cells were incubated with increasing concentrations of PPF (0, 5, 50, and 500 μM). After 0, 48, 96 and 144 hours of treatment, cell were trypsinized and counted using an automated cell counter. FIG. 24B—GBM43, GBM10, and T98G glioma cells were treated with increasing doses of PPF (0.5, 1, 5, 10, and 20 μM) in triplicate. The Cell Titer Glo (Promega) reagent was used to measure survival. Raw values were normalized on a plate-by-plate basis such that 100% cell viability was equivalent to the mean of vehicle wells and 0% cell viability was equivalent to the mean of the MG132 positive control. The normalized data was used to assess viability of glioma cells after PPF treatment.
(§6) Referring now to FIGS. 25A and 25B: To determine if PPF influences glioma cell proliferation, the inventors treated T98G, GBM10, and GBM43 cells with increasing concentrations of PPF and evaluated cell proliferation over the course of 144 hours. Briefly, 1.25×10^5 cells were seeded (n=3) in 12-well plates in 1 mL of DMEM supplemented with 10% FBS and allowed to attach at 37° for 16 hrs. […] After 0, 48, 96 and 144 hours of treatment, the cells were trypsinized and counted using the automated cell counter. […] Subsequently, 100 μL of CellTiterGlo® reagent was added to each well and luminescence was measured using Envision Reader. […]

TROY [3] = details: Reference 41; cited from earlier work
[4] = clinical trials, cited from earlier work
microglia = details: Reference 41; cited from earlier work
[5] = system: T98G, GBM10, and GBM43 cells; test: CellTiterGlo glioma cell cytotoxicity / viability assay; assay type: cell-based, Human; details: all three GBM cell lines; PPF 0.5 to 20 μM; 72 hours
Procedure: as §5, §6

NF-κB = NF-κB activation (phosphorylation) by immunoblot; assay type: cell-based, Human; details: T98G and GBM43 cells; PPF 5 μM
Procedure: as §3, §4

Rac1 = Rac1 activation assay after FBS stimulation; assay type: cell-based, Human; details: T98G cells; 5 μM PPF 1 hour, then 10% FBS 2-10 mins
Procedure: (§7) FIGS. 27A and 27B depict that PPF suppresses GBM cell invasion and Rac1 activation. FIG. 27A—T98G, GBM10, and GBM43 glioma cells were treated with 5 μM PPF and invasion was assayed over 24 hours utilizing a Matrigel invasion assay, *p<0.05. FIG. 27B—T98G glioma cells were serum starved, pre-incubated with 5 μM PPF or vehicle for 1 hour, and then stimulated with 10% FBS for 2-10 mins. Cell lysates were harvested and equal concentrations of protein were assessed for Rac1 activation.
(§8) Referring now to FIGS. 27A and 27B: The inventors next examined whether PPF inhibited TROY dependent glioma cell invasion. […] Briefly, 5.0×10^5 glioma cells were seeded in 100-mm diameter culture dishes and incubated overnight at 37° C. Subsequently, cells were serum starved for 16 hours at 37° C. Cells were then harvested, re-suspended in growth factor reduced Matrigel (Becton Dickinson) (1.0×10^5 cells/50 uL), added in triplicates to collagen-coated transwell chambers, and allowed to invade through Matrigel in presence of 10% FBS and/or 5 μM PPF. After incubation for 24 hours at 37° C., non-invaded cells were scrapped off the upper side of the membrane and cells invaded to the other side of the membrane were fixed with 4% paraformaldehyde (PFA) (Affymetrix) and stained with DAPI (Invitrogen). Nuclei of invaded cells were counted in five high power fields (HPF) with a 20× objective.

TROY [6] = test: TROY expression in GBM cells by immunoblotting (Western blot); assay type: cell-based, Human
Procedure: FIGS. 24A-24D illustrate that PPF treatment decreases TROY expression in GBM cells. FIG. 24A—a Western blot analysis of TROY expression in T98G cells. Cells were treated with PPF at indicated concentrations for 6 hrs, lysed, and cell lysates immunoblotted with anti-TROY antibody. Immunoblotting of α-Tubulin in cell lysates is included as a loading control. FIG. 24B—Western blot analysis of TROY expression in T98G, GBM43, and GBM10 cells. Cells were treated with PPF at indicated concentrations for 24 hrs, lysed, and cell lysates immunoblotted with anti-TROY and α-Tubulin antibodies. FIG. 24C—Western Blot analysis of TROY expression in GBM10 and GBM43 primary glioma cells. Cells were treated with 5 μM PPF, lysed at the indicated time-points, and the lysates immunoblotted with an anti-TROY antibody. Immunoblotting of β-Actin in cell lysates is included as a loading control. FIG. 24D—Western Blot analysis of T98G, GBM10 and GBM43 glioma cells treated with 5 μM PPF for 24 hours. Lysates were immunoblotted with anti-TROY, anti-TNFR1, anti-EGFR, and β-Actin antibodies.
Cell Culture Conditions: Human glioma cell line T98G (ATCC) was maintained in DMEM with high glucose (Invitrogen) supplemented with 10% heat-inactivated fetal bovine serum (FBS) (Invitrogen) in a 37° C., 5% CO2 atmosphere at constant humidity. The primary glioma patient derived xenograft (PDX) lines GBM10 and GBM43 were derived from patient surgical samples and maintained as flank xenografts in immunodeficient mice. GBM10 and GBM43 flank tumor were resected, brought to single cell suspension via mechanical dissociation, and maintained in DMEM+10% FBS for in vitro experiments. In the experiments with FBS stimulation, the cells were serum starved (DMEM+0.1% Bovine Serum Albumin (BSA)) for 16 hours before stimulation with 10% FBS in DMEM.
Referring now to FIGS. 24A, 24B, 24C, and 24D: The inventors investigated if PPF could be utilized pharmacologically to decrease TROY expression in GBM cells. The long-term established cell line T98G was first utilized to test the efficacy of PPF. Cells were treated with increasing concentration of PPF, 1 to 20 μM, lysed, and TROY expression assessed by immunoblotting. Briefly, monolayers of cells were washed in phosphate-buffered saline (PBS) containing 1 mM phenylmethylsulfonylfluoride and 1 mM sodium orthovanadate and then lysed in 2×SDS sample buffer containing protease and phosphatase inhibitors. Protein concentrations were determined using the BCA Assay (Pierce). Thirty micrograms of total protein was loaded per lane and separated by SDS-PAGE. […] Protein bands were detected using SuperSignal Chemiluminescent Substrate (Pierce) with a UVP BioSpectrum 500 Imaging System.

cleaved PARP = test: Apoptosis by immunoblot for cleaved PARP; assay type: cell-based, Human; details: T98G cells; PPF 5 μM, TMZ 250 μM
Procedure: as §3, §4

CNS-1 rat model = details: systemic PPF treatment, via modulation of microglia; cited from earlier work
[7] = system: T98G, GBM10, and GBM43 glioma cells; test: Matrigel invasion assay; assay type: cell-based, Human; details: 5 μM PPF, 24 hours, 10% FBS
Procedure: as §7, §8

CCCn1cnc2c1c(=O)n(CCCCC(C)=O)c(=O)n2C [PPF, 3-methyl-1-(5-oxohexyl)-7-propyl-3,7-dihydro-1H-purine-2,6-dione]
TNFR1 expression (TNFR1): did not affect
lamellipodia formation and membrane ruffling [1]: significantly decreased
AKT phosphorylation (AKT): effectively decreased
surviving fraction, PPF and 2Gy radiation compared to 2Gy radiation alone (T98G and GBM43 cells; GBM cells, 5 μM PPF 24 hours then 2 Gy): significantly decreased
surviving fraction, PPF in combination with TMZ compared to TMZ alone (T98G and GBM43 cells; T98G and GBM43, 5 μM PPF 24 hours then 250 μM TMZ 24 hours): significantly decreased
EGFR expression (EGFR): did not affect
proliferation of glioma cells [2]: did not affect
TROY expression in microglia (TROY [3]): decreasing
therapeutic efficacy ([4]; Alzheimer's disease and vascular dementia): therapeutic efficacy
side effect profile ([4]; Reference 39): minimal side effect profile
migration of microglia (microglia): inhibit
cell viability [5]: negligible loss of cell viability
NF-κB phosphorylation (NF-κB): effectively decreased
Rac1 activation (Rac1): inhibited
TROY expression over time (TROY [6]; GBM10 and GBM43 cells, 5 μM PPF for varying lengths of time): decreased in a time-dependent manner
TROY expression (TROY [6]; T98G cells, 1 μM PPF, 6 hrs): significant suppression
TROY expression (TROY [6]; T98G cells, PPF 1 to 20 μM, 6 hrs): decreased in concentration dependent manner
TROY expression (TROY [6]; T98G, GBM10 and GBM43 cells, 5 μM PPF, 24 hrs): effective in lowering TROY expression
cleaved PARP, PPF and TMZ compared to TMZ alone (cleaved PARP): increase
tumor growth (CNS-1 rat model): decreased
glioma cell invasion [7]: significantly inhibited
